Measured values reported in patent US7674772B2, “Compositions and methods for treating atherosclerosis” (Queen's University at Kingston, priority 2006, dated 2010).
Square brackets hold non-standard residues; d marks the D form. Ends that are not written are not given here.

Experiments:
[1] = intravenous and oral administration of an aqueous solution; U.S. Ser. No. 11/268,690; cited from earlier work
mouse cell culture = details: U.S. Ser. No. 11/268,690; cited from earlier work
human cell culture = details: U.S. Ser. No. 11/268,690; cited from earlier work
[2] = tested on: [3H]-cholesterol-loaded J774 macrophages; experiment: in vivo mouse cholesterol export model; design: species or system mice
Experimental: In these experiments, mice (n=4) were first injected intravenously with [^3H]cholesterol-laden macrophages and then injected 24 hours later with the exemplary retro-inversal D amino acid peptide RFHNPDKGSRGWENAAQDA (D-form; SEQ ID NO: 3). This peptide is the reverse sequence of the forward human D amino acid 19-mer peptide ADQAANEWGRSGKDPNHFR (D-form; SEQ ID NO:11) disclosed in U.S. patent application Ser. No. 11/268,690, filed Nov. 7, 2005, teachings of which are herein incorporated by reference in their entirety.
The retro-inversal D amino acid peptide RFHNPDKGSRGWENAAQDA (SEQ ID NO: 3) at a total dose of 300 ug, was injected into the tail vein of each mouse that was previously (24 hours earlier) injected with H^3-radiolabeled cholesterol-loaded macrophages. […] The blood samples were centrifuged to separate the red blood cells from the plasma and the [^3H]-cholesterol in plasma was determined by scintillation counting. […]
Cells were washed four times with PBS/BSA and then detached from the culture dishes. […] Baseline cholesterol efflux was determined by measuring the amount of [^3H]-cholesterol in plasma by scintillation spectrometry. […]
Five hours following intravenous injection of the reverse peptide, approximately 25 μl of blood were collected from the tail vein of each animal into heparinized capillary tubes and cholesterol efflux was determined as described above. […]

Row | Sequence | cholesterol efflux in vivo [1] | cholesterol efflux in vitro (mouse cell culture) | cholesterol efflux in vitro (human cell culture) | increase in macrophage cholesterol export relative to control animals treated with saline vehicle alone ([2]; 300 μg total dose, tail vein injection, [3H]-cholesterol in plasma 5 hours post injection, n=4, p=0.0004) | in vivo macrophage cholesterol export / cholesterol efflux ([2]; intravenous, aqueous vehicle, versus vehicle control group (p=0.0004))
1 | ADQAANEWGRSGKDPNHFR ([dA][dD][dQ][dA][dA][dN][dE][dW]G[dR][dS]G[dK][dD][dP][dN][dH][dF][dR]) [SEQ ID NO:11, forward human SAA 1.1 D amino acid 19-mer peptide disclosed in U.S. Ser. No. 11/268,690] | effective at increasing cholesterol efflux | effective at increasing cholesterol efflux | effective at increasing cholesterol efflux | – | –
2 | RFHNPDKGSRGWENAAQDA ([dR][dF][dH][dN][dP][dD][dK]G[dS][dR]G[dW][dE][dN][dA][dA][dQ][dD][dA]) [SEQ ID NO: 3] | – | – | – | over 2.5 fold | significantly enhanced
